Publication PMC11452294, “Periplasmic binding proteins Bug69 and Bug27 from Bordetella pertussis are in vitro high‐affinity quinolinate binders with a potential role in NAD biosynthesis” (FEBS Open Bio, 2024)

Columns and labels:
Bug69 = biological target: T1, Bug69 (Bordetella pertussis, UniProt Q7VUA0); assay: intrinsic tryptophan fluorescence quenching titration; assay type: binding; conditions: 20 °C; 0.1 μM protein; excitation 295 nm, fit at 328 nm
T1 construct: gene BP3219; mature periplasmic domain, signal peptide omitted, pET28c NcoI/XhoI, C-terminal His tag kept; E. coli BL21(DE3); denatured and renatured to remove endogenous ligands
T1 sequence (Q7VUA0 32-332): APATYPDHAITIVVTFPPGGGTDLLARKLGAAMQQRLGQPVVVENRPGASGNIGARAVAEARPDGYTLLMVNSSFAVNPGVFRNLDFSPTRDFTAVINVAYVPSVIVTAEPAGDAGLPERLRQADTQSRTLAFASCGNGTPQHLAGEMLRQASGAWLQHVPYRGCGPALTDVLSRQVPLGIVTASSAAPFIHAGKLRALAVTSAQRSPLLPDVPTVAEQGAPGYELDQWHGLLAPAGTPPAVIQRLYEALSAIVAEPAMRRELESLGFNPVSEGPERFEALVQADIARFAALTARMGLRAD

Bug27 = biological target: T2, Bug27 (Bordetella pertussis, UniProt Q7W019); assay: as above; assay type: binding
T2 construct: gene BP0682; mature periplasmic domain, signal peptide omitted, pET28c NcoI/HindIII, C-terminal His tag kept; E. coli BL21(DE3); denatured and renatured to remove endogenous ligands
T2 sequence (Q7W019 30-330): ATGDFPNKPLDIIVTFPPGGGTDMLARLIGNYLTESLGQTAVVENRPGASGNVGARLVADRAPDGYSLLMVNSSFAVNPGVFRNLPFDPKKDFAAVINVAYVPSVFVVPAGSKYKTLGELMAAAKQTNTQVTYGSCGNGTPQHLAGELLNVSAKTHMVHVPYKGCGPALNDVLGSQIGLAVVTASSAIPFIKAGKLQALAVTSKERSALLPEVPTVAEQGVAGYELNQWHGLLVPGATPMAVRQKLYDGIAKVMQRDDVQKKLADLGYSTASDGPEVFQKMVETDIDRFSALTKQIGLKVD

Molecule `O=C(O)c1cccnc1C(=O)O` [quinolinate] has a Kd (Bug69) of 70 ± 22 nM and a Kd (Bug27) of 136 ± 28 nM.
